Measurements published in PubChem BioAssay AID1963443 (Molecular Pharmacology Branch, DTP, NCI, 2024).

Tested on: MDA-MB-231 complex spheroids, growth inhibition
Test: Anticancer human tumor MDA-MB-231 cell line growth inhibition [Asc];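 also: spheroids exposed to compounds for 7 days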
Details: for IC50: curve of first compound; for viability, T/C: stronger effect = lower value; active = viability on the fitted dose curve at most 10% of control; inactive = the rest
Description: Multicellular complex tumor spheroid response to apoptosis pathway targeting inhibitors Alrizomadlin, Pelcitoclax, and Dasminapant in combination with a variety of drugs and investigational agents in selected tumor cell lines
The MDM2 inhibitor alrizomadlin, the Bcl-2/Bcl-xL inhibitor pelcitoclax, and the IAPs inhibitor dasminapant were evaluated both individually and in combination with standard of care and investigational anticancer small molecules within a complex spheroid model of solid tumors. . Complex spheroids include a stromal component modeled by human endothelial cells (HUVEC) and fibroblasts modeled by human mesenchymal stem cells (MSCs). The concentration ranges selected for each drug and investigational agent were based upon clinically achievable concentrations if the clinical Cmax of the agent was known.
Compounds. The drugs and investigational agents: alrizomadlin (APG-115; NSC831270), pelcitoclax (APG-1252; NSC835773), dasminapant (APG-1387;NSC834197), TAK-243 (NSC785004), copanlisib (NSC809693), olaparib (NSC753686), talazoparib (NSC767125), cobimetinib (NSC 768068), eltanexor (KPT-8602, NSC 794443), abemaciclib (NSC 768073), sotorasib (NSC818433), adagrasib (NSC 831453), MRTX-1133 (NSC 836407), Iadademestat (ORY1001, NSC 806812), and RMC-4630 (NSC839698), were obtained from the NCI Developmental Therapeutics Program Chemical Repository. The FDA-approved anticancer drug set is available from the Developmental Therapeutics Program at https://dtp.cancer.gov/organization/dscb/obtaining/available plates.htm. […] The stock solutions were prepared in dimethyl sulfoxide (DMSO, Sigma-Aldrich, St. Louis, MO, cat. D2650) at 800-fold the tested concentration and stored at -70 degrees C prior to their use. All drugs and investigational agents were tested over a range starting from a high concentration at or near the clinical Cmax and decreasing in half-log increments. If the clinical Cmax for an agent had not been determined, the highest concentration tested was 10 microM.
The patient-derived cancer (PDC) cell lines include five colon adenocarcinomas: 186277-243-T-J2-PDC, 616215-338-R-J1-PDC, 439559-082-T-J2-PDC, 463943-066-T-J2-PDC, and 519858-162-T-J1-PDC; three pancreatic carcinomas: 323965-272-R-J2-PDC, 521955-158-R6-J3-PDC, and 521955-158-R2-J5-PDC; two uterine sarcomas: 327498-152-R-J2-PDC and 993429-296-R-J1-PDC; two rhabdomyosarcomas: 755483-174-R-J1-PDC and 772245-204-R-J1-PDC; two soft tissue sarcomas: 126254-015-R-J1-PDC and 494315-158-R-J1-PDC; two malignant fibrous histiocytomas: 317291-083-R-J1-PDC and 596521-263-R-J1-PDC; two breast carcinomas: 171881-019-R-J1-PDC and 885512-296-R-J2-PDC; and one ovarian carcinoma: 6556581-035-R-J-PDC were obtained from the NCI PDMR, (https://pdmr.cancer.gov). The established cell lines HSSY-2 synovial sarcoma (RRID:CVCL 8719), SYO-1 synovial sarcoma (RRID:CVCL_7146), MPNST malignant peripheral neural sheath tumor were obtained from the Sloan Kettering Institute. The following established cell lines were purchased from the American Type Culture Collection (ATCC, Manassas, VA), Sor the received from the NCI repository:, PANC-1 pancreatic carcinoma (CRL-1469, RRID:CVCL_0480), OVCAR-5 ovarian carcinoma (RRID:CVCL_1628), OVCAR-8 ovarian carcinoma (RRID:CVCL_1629), , MCF-7 breast carcinoma (CRL-12584, RRID:CVCL_0031), MDA-MB-231 breast carcinoma (CRL-12532, RRID:CVCL_0062), NCI-H1876 small cell lung carcinoma (CRL-5902, RRID:CVCL_1503), NCI-H510A small cell lung carcinoma (HTB-184, RRID:CVCL_1565), NCI-H1417 (CRL-5869, RRID:CVCL_1469), and NCI-H196 small cell lung carcinoma (CRL-5823, RRID:CVCL_1509). Dr. Peter Houghton (Greehey Children's Cancer Research Institute, University of Texas Health Science Center, San Antonio, TX) provided Rh-18 rhabdomyosarcoma (RRID:CVCL_1659). Pooled donor human umbilical vein endothelial cells (HUVEC, Lonza, cat. CC-2519) and human mesenchymal stem cells (hMSC, Lonza, cat. PT-2501) were purchased from Lonza (Walkersville, MD).
Cell Culture. […]

CCN1CCN(Cc2ccc(Nc3ncc(F)c(-c4cc(F)c5nc(C)n(C(C)C)c5c4)n3)nc2)CC1 + CCN1C(C(=O)NC23CCC(C(=O)O)(CC2)CC3)C(c2cccc(Cl)c2F)C2(C(=O)Nc3cc(Cl)ccc32)C12CCCCC2
inactive: viability, T/C (second compound 0.03 µM, first compound 0.00316 µM) 102% | viability, T/C (second compound 0.03 µM, first compound 0.01 µM) 94.3% | viability, T/C (second compound 0.03 µM, first compound 0.0316 µM) 76.6% | viability, T/C (second compound 0.03 µM, first compound 0.1 µM) 59% | viability, T/C (second compound 0.03 µM, first compound 0.316 µM) 49.8% | viability, T/C (second compound 0.03 µM, first compound 1 µM) 46.6% | viability, T/C (second compound 0.0949 µM, first compound 0.00316 µM) 109% | viability, T/C (second compound 0.0949 µM, first compound 0.01 µM) 98.8% | viability, T/C (second compound 0.0949 µM, first compound 0.0316 µM) 79.7% | viability, T/C (second compound 0.0949 µM, first compound 0.1 µM) 61.8% | viability, T/C (second compound 0.0949 µM, first compound 0.316 µM) 50.5% | viability, T/C (second compound 0.0949 µM, first compound 1 µM) 48.1% | viability, T/C (second compound 0.3 µM, first compound 0.00316 µM) 103% | viability, T/C (second compound 0.3 µM, first compound 0.01 µM) 99.9% | viability, T/C (second compound 0.3 µM, first compound 0.0316 µM) 86.9% | viability, T/C (second compound 0.3 µM, first compound 0.1 µM) 67% | viability, T/C (second compound 0.3 µM, first compound 0.316 µM) 55% | viability, T/C (second compound 0.3 µM, first compound 1 µM) 52.7% | viability, T/C (second compound 0.949 µM, first compound 0.00316 µM) 105% | viability, T/C (second compound 0.949 µM, first compound 0.01 µM) 101% | viability, T/C (second compound 0.949 µM, first compound 0.0316 µM) 85.5% | viability, T/C (second compound 0.949 µM, first compound 0.1 µM) 67.2% | viability, T/C (second compound 0.949 µM, first compound 0.316 µM) 52.8% | viability, T/C (second compound 0.949 µM, first compound 1 µM) 53% | viability, T/C (second compound 3 µM, first compound 0.00316 µM) 94.8% | viability, T/C (second compound 3 µM, first compound 0.01 µM) 86.6% | viability, T/C (second compound 3 µM, first compound 0.0316 µM) 73.6% | viability, T/C (second compound 3 µM, first compound 0.1 µM) 54.5% | viability, T/C (second compound 3 µM, first compound 0.316 µM) 49.1% | viability, T/C (second compound 3 µM, first compound 1 µM) 52.6%
479 nM: IC50 (second compound 0.0949 µM)
305 nM: IC50 (second compound 0.03 µM)
> 1000 nM: IC50 (second compound 0.3 µM) | IC50 (second compound 0.949 µM) | IC50 (second compound 3 µM)
